1 compound from US20210186982A1, “METHODS AND COMPOSITIONS FOR TREATING MELANOMA” (UNIVERSITE NICE SOPHIA ANTIPOLIS, priority 2017, published 2021) can be followed below.

One series deals with 1205Iu. Kind of series: MTS conversion assay, melanoma cell proliferation. It is filed as cell-based, human. The protocol: (§1) Cell proliferation was measured by a MTS conversion assay using the CellTiter 96® Aqueous Non-Radioactive Cell Proliferation kit (Promega, Madison Wis.) according to the manufacturer instructions. Cells were seeded in 96-well plates (5×10^4 cells/well) and treated with different reagents for the indicated times and incubated at 37° C. with MTS reagent. The optical density of each sample at 490 nm was determined with a Multiskan FC plate reader (Thermo Fisher Scientific, Waltham, Mass. USA).
For orientation: Tetrazolium dyes change colour on reduction, which living cells bring about.

The subject of another series is 451IuR. The series is described as follows: MTS conversion assay, melanoma cell proliferation. It is filed as cell-based, human. The protocol:
as §1

A further series concerns 501Mel. Kind of series: MTS conversion assay, melanoma cell proliferation. It counts as cell-based, human. The protocol:
as §1

Series [1] deals with A375. Kind of series: MTS conversion assay, melanoma cell proliferation. It is filed as cell-based, human. The protocol: as §1
Another series has as its system m229R. Kind of series: MTS conversion assay, melanoma cell proliferation. It counts as cell-based, human. The protocol:
as §1

A further series has as its system Pt#1 patient cells. Kind of series: MTS conversion assay, patient melanoma cell proliferation. It counts as cell-based. Conditions: Homo sapiens; Patient cells Pt#1; MET; BRAF*; resistance none; 48 h MTS; read-out: b-AP15 IC50. The protocol:
as §1

Another series deals with 12051u cells. Kind of series: Cell cycle / sub-G1 analysis by flow cytometry (PI). Particulars: 24 h. It is filed as cell-based, human. The protocol: (§2) Cell cycle profiles and sub-G1 analysis were performed by flow cytometry analysis of propidium iodide (PI)-stained cells. Briefly, following permeabilization in icecold ethanol 70%, cells were stained with PI 40 μg/ml in PBS supplemented with RNAse A 100 μg/ml before analysis using a BD FACSCanto cytometer.
(In general: In flow cytometry, cells or beads pass a laser one at a time.)

The test system of the next series is A375 cells. Described as above. It is filed as cell-based, human. Particulars: 24 h. The protocol: as §2
For a further series, the system named is Me1501 and A375 cells. The series is described as follows: Colony formation. Particulars: compared to untreated cells. It is filed as cell-based, human. The protocol:
(§3) Alternatively, cell growth was assessed by crystal violet staining on cells seeded in 24-well plates for the indicated time. After treatment, cells were fixed in PFA 3% during 20 min, washed with PBS 3 times and stained with crystal violet 0.4% in ethanol 20% for 30 min.

In the next series the test system is 4511u and 4511uR cells. The series is described as follows: Colony formation assay. It is filed as cell-based, human. The protocol: as §3
The test system of the next series is melanoma cells. The series is described as follows: Cytotoxic effect, rounding of cells. It is filed as cell-based, human.
In another series the test system is 451Lu-R Luc+ cells. The series is described as follows: Melanoma xenograft in nude mice, tumor bioluminescence. It counts as in vivo. Particulars: 10 mgkg-1 i.p. every 3 days, vs vehicle. The protocol:
(§4) All mouse experiments were carried out in accordance with the Institutional Animal Care and the local ethics committee. For human melanoma xenografts, 5-week-old female athymic (nu/nu) mice (Harlan) were subcutaneously injected with 1×106 451Lu-R BRAF inhibitor resistant melanoma cells engineered to express a luciferase reporter (451Lu-R Luc+ cells) in 100 μl of PBS. After 3 days, mice were injected every 3 days intraperitoneally with vehicle or 10 mgkg-1 b-AP15 in 90/1/9 mix of Labrafil/Tween 80/DMA. At the indicated time, mice were anesthetized and injected intraperitoneally with 50 mgkg-1 D-luciferin (Perkin Elmer) in PBS. Images were acquired using a Photon Imager (Biospace Lab) system and data analysed with the M3Vision software (Biospace Lab). Tumor growth was monitored and quantified using BLI. The total numbers of photons per second per steradian per square centimeter were recorded. For BLI plots, photon flux was calculated for each mouse by using a rectangular region of interest encompassing the thorax of the mouse in a prone position.

Series [2] is described as follows: Body weight during xenograft study. It is filed as in vivo. Particulars: 10 mgkg-1 i.p. every 3 days; nude mice; course of the study. The protocol:
as §4

The test system of series [3] is A375. Kind of series: Real-time imaging growth curve (IncuCyte Zoom). It counts as cell-based, human. Particulars: 2 μM; 3 days; compared with bortezomib and VLX1570. The protocol:
FIG. 8. USP14 inhibition induces growth inhibition and cytotoxicity on melanoma cell lines. (A) Growth curve of A375 treated with 2 μM b-AP15, 2 μM VLX1570 or […] bortezomib (BTZ). Data were acquired in triplicate during 3 days using an IncuCyte Zoom. (B) and (C) Cytotoxic effects of USP14 inhibition on melanoma cells. A375 and Me1501 cells were treated with the indicated doses of b-AP15 or VLX1570, and stained with cytotox green reagent (100 nM). Cytotoxicity was monitored in triplicate for 72 h with an IncuCyte imaging system.

Another series deals with ER stress response genes. The series is described as follows: qRT-PCR analysis of ER stress response genes. It counts as cell-based, human. Conditions: 2 μM b-AP15, 6 h and 24 h; 12051u cells. The protocol: Total RNA was extracted from cell samples using Nucleospin RNAII kit (Macherey-Nagel) and following the manufacturer's instructions. Recovered RNA samples were quantified using NanoDrop spectrophotometer ND1000 (Thermo Fisher Scientific). Reverse transcription was performed on 1 μg of total RNA in a volume of 20 μL using High capacity cDNA Reverse Transcription kit (Applied Biosystems) according to the manufacturer's instructions. Quantitative PCR was performed on 20 ng cDNA samples, in sealed 96-well microtiter plates using the Platinum® SYBR Green qPCR Supermix-UDG w/ROX (Life Technologies) with the StepOnePlus System (Applied Biosystems). Relative mRNA levels were determined using the 2ΔΔCT method and ACTB and PPIA as housekeeping genes. Values are the mean of duplicates and are representative of two independent experiments.

A further series deals with 12051u and A375 cells. Kind of series: Immunoblot analysis of proliferation and apoptosis proteins. It is filed as cell-based, human. The protocol:
Melanoma cells were harvested as described before 6. Cells were lysed at 4° C. in RIPA buffer (Millipore) supplemented with Pierce™ Protease and Phosphatase Inhibitor Mini Tablets, and briefly sonicated. Cell lysates were cleared at 16,000 xg for 15 min at 4° C. Whole cell lysates were subjected to SDS-PAGE and immunoblot analysis as previously described 6.
Background: In western blotting, separated proteins are transferred to a membrane and probed.

Where [4] appears, read: 24 h, increasing doses 0.01 to 10 μM.
[5] abbreviates: 24 h, increasing doses 0.1 to 10 μM.

In general, IC50 refers to the midpoint of a concentration-inhibition curve.

Entries after “also recorded” stand apart in the source; their conditions may differ. Some results are limits rather than exact numbers.

Take `Cc1cc(C(=O)CN2CCCC2)c(C)n1-c1ccc(F)cc1` [b-AP15]: the “cell proliferation of 1205Lu cells (MTS)” value in the series with 1205Iu (setting [4]) was “impaired cell proliferation in a dose-dependent manner”. Moreover, the IC50 with 1205Iu (Homo sapiens, 1205Iu, MET, BRAFV600E/PTEN*, resistance none, 48 h MTS, read-out: b-AP15 IC50) stood at 400 nM; in the series on 451IuR (Homo sapiens, 451IuR, MET, BRAFV600E/p53*/?, resistance dabrafenib, 48 h MTS, read-out: b-AP15 IC50) it was 1300 nM; with 501Mel (Homo sapiens, 501Mel, MET, BRAFV600E, resistance none, 48 h MTS, read-out: b-AP15 IC50), 500 nM; in the series on A375 [1] (Homo sapiens, A-375, A375, MET, BRAFV600E/CDKN2A*, resistance none, 48 h MTS, read-out: b-AP15 IC50) it was 600 nM; with m229R (Homo sapiens, m229R, MET, BRAFV600E/PTEN*/RTK*, resistance vemurafenib, 48 h MTS, read-out: b-AP15 IC50), 1100 nM; with Pt#1 patient cells, 3.4 µM. In addition, the “cell proliferation of BRAFi-resistant 4511uR cells (MTS)” value with 451IuR (setting [5]) is on record as “potently decreased cell proliferation”. Also, the “cell proliferation of 501me1 cells (MTS)” value in the series with 501Mel (setting [4]) was “impaired cell proliferation in a dose-dependent manner”. For the same compound, in the series with A375 [1] (24 h, increasing doses up to 10 μM), the “cell proliferation of A375 cells (MTS)” value was “drastically decreased cell proliferation; also recorded: impaired cell proliferation in a dose-dependent manner”. Further, the “cell proliferation of BRAFi-resistant m229R cells (MTS)” value in the series on m229R (setting [5]) is “potently decreased cell proliferation”. For the same compound, the “sub-G1 cell population with reduced DNA content” value in the series on 12051u cells is 19%; in the series on A375 cells, 11%. For the same compound, the “ability to form colonies, compound treatment” value with Me1501 and A375 cells is “no longer capable of forming colonies”. Moreover, the melanoma colony formation result with 4511u and 4511uR cells is listed as “suppressed melanoma colony formation”. Besides, in the series with melanoma cells, the “time to rounding of melanoma cells” value is at most 12 h. Further, the “melanoma burden, bioluminescence analysis of tumor growth” value with 451Lu-R Luc+ cells is reported as “marked decrease in melanoma burden”. Further, in series [2], the “tolerability / weight loss” value was “no weight loss was observed”. Also, in the series on A375 [3], the “effect on cell proliferation, real-time imaging” value was “rapid”. Also, in the series on ER stress response genes, the “ER stress response (CHOP, BIP/GRP78, GADD34, ATF4, spliced XBP1)” value is given as “triggered a potent ER stress response”. Further, in the series on 12051u and A375 cells, the “levels of p53 and of the cell cycle inhibitor p21” value is listed as “increased”. Moreover, the “levels of phosphorylated Rb proteins” value with 12051u and A375 cells is “reducing”.
